From US10271539B2, “Assay-ready frozen cell and method for minimizing variability in the performance thereof” (LE CENTRE NATIONALE DE LA RECHERCHE SCIENTIFIQUE (CNRS), priority 2013, dated 2019)
“Also recorded” adds a separate entry of the source. Where a SMILES comes first, the peptide text is derived from it. [ ]: non-standard residue; d: D form. The star is where a group is joined. Sta = CC(C)C[C@H](N)[C@@H](O)CC(=O)O; Isovaleryl = CC(C)CC(=O)*; Cbz = O=C(OCc1ccccc1)*

Assays:
KJL-2 cells [1] = experiment: TNFα-induced firefly luciferase (FL) / Renilla luciferase (RL) reporter gene assay (DUAL-GLO) in vinblastin-treated, frozen and thawed KJL-2 cells; assay type: cell-based, human; conditions: for FL/RL ratio: scavengers/chelators of reactive oxygen species, cells treated 10 minutes
Description: The X-axis is TNFα, ng/ml.
KJL-2 cells were used in all experiments (carried out to date). […] In order to reduce the formation of ice crystals and subsequent cell lysis, all experimental groups were frozen using the alcohol-free Biocison controlled freezing system that cools cells at approximately 1.0° C./minute.

KJL-2 cells [2] = experiment: Staurosporine-induced apoptosis: FL and RL activity in KJL-2 cells; assay type: cell-based, human; conditions: 10 micromolar staurosporine, over 24 hours
Description: Briefly, untreated cells or cells treated with vinblastin as described in WO 2004/039990; US 2004/0235157 and U.S. Pat. No. 7,470,536 were treated for 10 minutes with substances that inhibit the formation of reactive oxygen species and/or scavengers of reactive oxygen species either alone or concomitantly with vinblastin treatment. The cells were then frozen using the cryopreservative medium described in WO 2004/039990; US 2004/0235157 and U.S. Pat. No. 7,470,536 with or without substances that inhibit the formation of reactive oxygen species and/or scavengers of reactive oxygen species. KJL-2 cells were used in all experiments (carried out to date). All groups were treated with vinblastin using the same procedure as described in WO 2004/039990; US 2004/0235157 and U.S. Pat. No. 7,470,536. In order to reduce the formation of ice crystals and subsequent cell lysis, all experimental groups were frozen using the alcohol-free Biocison controlled freezing system that cools cells at approximately 1.0° C./minute. All assays were performed using DUAL-GLO (Promega, Catalogue No 2920) that allows Firefly luciferase (FL) and Renilla luciferase (RL) activity to be determined sequentially in the same well of a microtiter plate.

[3] = substances that reduce H2O2 (COX inhibitors)
[4] = pre-treatment of cells with proteasome inhibitor
[5] = NAC both during treatment with vinblastin and in the cryopreservative medium
[6] = pre-treatment of cells with protease inhibitor and addition to the freezing medium

In the case of `CC(=O)Oc1ccccc1C(=O)O` [Acetylsalicylic acid, acetylsalicylic acid], the FL activity (KJL-2 cells [1]; [3]) is reported as “increased FL activity marginally”.

`N[C@@H](CCC(=O)N[C@@H](CS)C(=O)NCC(=O)O)C(=O)O` [GSH, glutathione SH] was tested, and the “vial-to-vial variation in normalized RLU and normalized fold induction” value (KJL-2 cells [1]; 1 mM GSH, FIGS. 5A and 5B) was “appeared to be effective in reducing vial-to-vial variation” and the “vial-to-vial variation in normalized RLU and normalized fold induction” value (KJL-2 cells [1]; 1 mM GSH, FIGS. 5A and 5B, listed as glutathione SH) was “higher degree of variability in FL readings”.

In the case of `CC(C)C[C@@H](C=O)NC(=O)[C@H](CC(C)C)NC(=O)[C@H](CC(C)C)NC(=O)OCc1ccccc1` [MG-132] (Cbz-Leu-Leu-Leu-aldehyde), the FL activity (KJL-2 cells [1]; [4]) is reported as “did not increase FL activity significantly; also recorded: reduced FL activity”.

In the case of `OC[C@@H](O)[C@@H](O)[C@H](O)[C@H](O)CO` [Mannitol], the FL/RL ratio (KJL-2 cells [1]) is reported as “without effect”.

For `CC(=O)N[C@@H](CSSC[C@H](N)C(=O)O)C(=O)O` [N-acetylcystine], the “vial-to-vial variation in normalized RLU and normalized fold induction” value (KJL-2 cells [1]; 5 mM NAC, FIGS. 6A and 6B) was “superior to GSH treatment in reducing vial-to-vial variation”, the “lot-to-lot variation in the performance of assay-ready frozen cells” value (KJL-2 cells [1]; [5]) was “markedly reducing” and the “vial-to-vial variation in the performance of assay-ready frozen cells” value (KJL-2 cells [1]; [5]) was “markedly reducing”.

With `O=S(=O)(F)Cc1ccccc1` [PMSF] the FL activity (KJL-2 cells [1]; [6]) was “did not significantly increase FL activity”.

`CC(C)CC(=O)N[C@H](C(=O)N[C@H](C(=O)N[C@@H](CC(C)C)[C@@H](O)CC(=O)N[C@@H](C)C(=O)N[C@@H](CC(C)C)[C@@H](O)CC(=O)O)C(C)C)C(C)C` [Pepstatin A] (Isovaleryl-VV[Sta]A[Sta]-OH) was tested, and the FL activity (KJL-2 cells [1]; [6]) was “did not significantly increase FL activity”.

In the case of `CC1(C)CC(O)CC(C)(C)N1[O]` [TEMPOL], the FL/RL ratio (KJL-2 cells [1]) is reported as “without effect”.

With `O=S(=O)(O)c1cc(O)c(O)c(S(=O)(=O)O)c1` [Tiron] the FL/RL ratio (KJL-2 cells [1]) was “without effect”.

With `CS(=O)(=O)c1ccc(C2=C(c3ccccc3)C(=O)OC2)cc1` [VIOXX, rofecoxib] the FL activity (KJL-2 cells [1]; [3]) was “increased FL activity marginally”.

In the case of `Oc1ncnc2[nH]ncc12` [allopurinol], the “FL values (RLU)” value (KJL-2 cells [1]; 100 μM allopurinol in cryopreservative, frozen one day or 5 days, vs control, FIGS. 1A and 1B) is reported as “significantly increases FL values”, the “intra-vial (vial to vial) variation in normalized RLU and normalized fold induction” value (KJL-2 cells [1]; 100 μM allopurinol, relative to cells treated with vinblastin alone, FIGS. 3A-4B) is reported as “reduced intra-vial variation” and the “form of the TNFα dose response curve” value (KJL-2 cells [1]; 100 μM allopurinol, TNFα of 10 ng/ml and higher, FIGS. 4A and 4B) is reported as “some alteration of the form of the TNFα dose response curve”.

With `Cl.N` [ammonium chloride] the FL activity (KJL-2 cells [1]; [6]) was “did not significantly increase FL activity”.

With `CC[C@H](C)[C@H](NC(=O)[C@H]([C@@H](C)CC)N(C)C(C)=O)C(=O)N[C@H](C(=O)N[C@@H](CC(C)C)C(=O)[C@@]1(C)CO1)[C@@H](C)O` [epoxomicin] the FL activity (KJL-2 cells [1]; [4]) was “did not increase FL activity significantly”.

In the case of `CC(=O)N[C@@H](CSC(=O)[C@]1([C@@H](O)C(C)C)NC(=O)[C@H](C)[C@@H]1O)C(=O)O` [lactacystin], the FL activity (KJL-2 cells [1]; [4]) is reported as “did not increase FL activity significantly”.

With `CN[C@@H]1C[C@H]2O[C@@](C)([C@@H]1OC)n1c3ccccc3c3c4c(c5c6ccccc6n2c5c31)C(=O)NC4` [staurosporine] the FL activity (KJL-2 cells [2]) was “inhibits FL activity progressively” and the RL activity (KJL-2 cells [2]) was “remains fairly constant”.

`NCCNCCNCCNCCN` [tetra ethylenepentamine] was tested, and the FL/RL ratio (KJL-2 cells [1]) was “without effect”.

With MNTMPyP the FL/RL ratio (KJL-2 cells [1]) was “without effect”.
